Measured values as given in patent US20040014721A1, “Method for using tethered bis(polyhydroxyphenyls) and O-alkyl derivatives thereof in treating inflammatory conditions of the central nervous system” (Oklahoma Medical Research Foundation, priority 2002, published 2004).
Read-outs that look alike come from different tables or passages of the source. Marks after values point to notes of the source that are not given here.

Assays:
[1] = system: TNFα-Stimulated NO2^− Production in EOC-20 Cells; test: TNFα-stimulated nitrite (NO2−) production in EOC-20 microglial cells, Griess assay; assay type: cell-based, mouse
Procedure: Cells were cultured in 24 well plates until confluent then treated with test agent, which was dissolved at 100× final concentration in dimethylsulfoxide (DMSO), or with vehicle only. Thirty minutes after treatment with test agent, cells were treated with 10 ng/mL recombinant mouse TNFα (Pharmingen, San Diego, Calif. USA). […] Each compound was tested at 100 μM, 20 μM, 4 μM, 0.8 μM and 0 μM in the presence of TNFα. Four wells of cells were used for each concentration of test agent.
(§1) Lower IC50 values indicate improved efficacy. FIG. 2 illustrates the principle of the measurement using NDGA as an example test agent. In order to determine viability, cell culture medium was replaced with phenol-free DMEM (Gibco) containing 20 μL/mL of MTT viability reagent (Promega). […] Control cells were taken to indicate 100% viability and intermediate values of MTT reduction were scaled to percentage of control. For each compound, an LD50 value was determined by extrapolation through sublethal concentrations. This value represents the concentration that reduced the MTT viability parameter by 50%.

[2] = system: C57/B6 mice; test: 3-nitropropionic acid (3NP) striatal damage model, rotarod and balance beam; assay type: in vivo; conditions: 2500 ppm in diet for one month, then 3NP 50 mg/kg i.p. every 12 h for 5 days
Procedure: Mice were then injected with 50 mg/kg 3NP intraperitoneally, every 12 h for 5 days. Motor performance was assessed daily by a rotarod task and balance was assessed by a balance wire task. In the rotarod task (Hensley et al. 2002), animals were placed on a bar rotating at 1 rpm and accelerating 10 rpm/minute until the animal fell from the bar. In the balance beam test, mice were placed on a 2-cm balance beam by suspending them by the tail, orienting them perpendicular to the beam, and placing the forepaws followed by hindpaws on the balance beam. Mice were left on the beam until they fell onto a soft cushion 75 cm below or until 5 min elapsed. The longest time of each pair of trials was used for statistical analysis.

[3] = system: C6 astrocyte culture exposed to lipopolysaccharide plus interferon gamma; conditions: LPS-stimulated C6 astrocyte model, Soliman et al., 1998; cited from earlier work
[4] = system: LnCAP Production of PSA; test: LnCAP production of PSA (ELISA); assay type: cell-based; conditions: 24 h
Procedure: LnCAP prostate cancer cells were be cultured according to established methods (Horoszewicz et al., 1983). These cells product prostate-specific antigen (PSA), a serine protease that predicts metastatic potential ([…] et al., 2000). […] Each drug was tested in triplicate at each concentration. Medium was removed and tested for PSA concentration using a commercially available enzyme-linked immunosorbent assay (ELISA). Viability was determined in the adherent cells using the MTT assay.

[5] = system: EOC-20 cells
Procedure: as §1

[6] = system: TNFα-Mediated Nitrite Production in EOC-20 Cells; test: Leukotrienes added to EOC-20 cells with or without low-dose TNFα, nitrite at 24 h; assay type: cell-based, mouse; conditions: for autonomous stimulation of NO2− production: without TNFα
Procedure: Because 5LOX inhibitors tended to antagonize TNFα, the converse experiment was performed of directly adding 5LOX metabolites to EOC-20 cells in the presence or absence of TNFα. LTB4 was added to microglia at 10 μM and TNFα was added at a low dose (4 ng/mL) 10 min later. Nitrite was assayed at 24 h. […] Similar examples exist in the literature of LTB4 synergizing with IFNγ to activate macrophages (Talvani et al., 2002).

[7] = system: pro-inflammatory cytokines in EOC-20 microglial cells; test: Multiprobe ribonuclease protection assay of cytokine transcription in TNFα-stimulated EOC-20 cells; assay type: cell-based, mouse
Excerpt: It was noted that IL1β, IL1RA, IFNγ and MIF were affected by the treatments, while IL18 was not.

[8] = system: G93A-SOD1 mice; conditions: administered chronically; Gurney et al., 1996; cited from earlier work
[9] = system: lipoxygenase; conditions: cited from earlier work
[10] = Table III, 10 ng/mL TNFα, 24 hr, by interpolation, read-out: IC50
[11] = Mus musculus, 24 h, Table III, 10 ng/mL TNFα, 24 hr, by interpolation, read-out: IC50
[12] = Table III, MTT viability, by extrapolation through sublethal concentrations
[13] = Homo sapiens, LNCaP, extrapolated
[14] = Mus musculus, Table V, * obtained by linear extrapolation from points ≦100 μM, read-out: IC50
[15] = Table III, 10 ng/mL TNFα, 24 hr, by interpolation
[16] = Mus musculus, Table V, read-out: IC50

7-Bis (4-hydroxy-3-methoxyphenyl)-1,6-heptadiene-3,5-dione [Curcumin]
IC50 [1, 10]: 7 µM | IC50 ([1]; Table V, read-out: IC50): 14 µM | balance test [2]: no effect | rotarod test [2]: possibly a detrimental effect | IC50 [3]: 72 µM

O=c1cc(-c2ccccc2)oc2cccc(O)c12 [5-OH-flavone]
IC50 ([4]; extrapolated): 227 µM | IC50 [1, 10]: 34 µM | LD50 [5]: 310 μm

O=c1cc(-c2ccccc2)oc2cc(O)cc(O)c12 [Chrysin, 5,7-dihydroxy-flavone]
IC50 ([4]; Homo sapiens, LNCaP): 91 µM | IC50 [1, 11]: 63 µM | LD50 [5, 12]: 85 μm

O=c1c(-c2ccc(O)cc2)coc2cc(O)ccc12 [Daidzein, 4,7-dihydroxyisoflavone]
IC50 [4, 13]: 130 µM | IC50 [1, 11]: 114 µM

Oc1cc(O)c2c(c1)O[C@H](c1ccc(O)c(O)c1)[C@H](O)C2 [Epicatechin]
IC50 Values (ELISA), PSA production [4]: Inactive

O=c1c(O)c(-c2ccc(O)cc2)oc2cc(O)cc(O)c12 [Kaempherol, 3,4′,5,7-tetrahydroxy-flavone]
IC50 ([4]; Homo sapiens, LNCaP): 68 µM | IC50 [1, 11]: 47 µM | LD50 ([5]; mouse): 70 μm

CCCCC/C=C\C\C=C/C=C/C=C/[C@@H]1O[C@H]1CCCC(=O)O [LTA4]
autonomous stimulation of NO2− production [6]: Neither LTA4 nor LTB4 stimulated NO2^− production autonomously

CCCCC/C=C\C[C@@H](O)/C=C/C=C/C=C\[C@@H](O)CCCC(=O)O [LTB4, Leukotriene B4]
effect on nitrite yield with low-dose TNFα ([6]; 10 μM, TNFα 4 ng/mL, 24 h): synergized with low-dose TNFα to produce a significantly greater nitrite yield | autonomous stimulation of NO2− production [6]: Neither LTA4 nor LTB4 stimulated NO2^− production autonomously

CC(=O)Oc1ccc(CC(C)C(C)Cc2ccc(OC(C)=O)c(OC(C)=O)c2)cc1OC(C)=O (centres unmarked) [NDGA tetraacetyl ester]
IC50 ([1]; Table V, read-out: IC50): 5 µM | LD50 ([5]; Table V): Nontoxic

CS(=O)(=O)Nc1ccc([N+](=O)[O-])cc1OC1CCCCC1 [NS-398]
activity against TNFα-stimulated nitrite production [1]: essentially inactive | IC50 [1, 14]: 108 µM | LD50 ([5]; Table V, * obtained by linear extrapolation from points ≦100 μM): 129* μM

Oc1cc(O)cc(/C=C/c2ccc(O)c(O)c2)c1 [Piceatannol, 3,3′,4′,5 -tetrahydroxy stilbene]
IC50 ([4]; Homo sapiens, LNCaP): 42 µM | transcription of pro-inflammatory cytokines [7]: differentially inhibited transcription of the pro-inflammatory cytokines | IC50 [1, 11]: 15 µM | LD50 [5, 12]: nontoxic

O=c1c(O)c(-c2ccc(O)c(O)c2)oc2cc(O)cc(O)c12 [Quercetin]
IC50 [4, 13]: 131 µM | IC50 [1, 11]: 44 µM | IC50 [3]: 0.062 µM | LD50 [5]: nontoxic

Oc1ccc(/C=C/c2cc(O)cc(O)c2)cc1 [Resveratrol, 3,4′,5-trihydroxy stilbene]
IC50 ([4]; Homo sapiens, LNCaP): 43 µM | IC50 [1, 11]: 80 µM | LD50 [5]: nontoxic

COc1ccc(/C=C/c2cc(O)cc(O[C@@H]3O[C@H](CO)[C@@H](O)[C@H](O)[C@H]3O)c2)cc1O [Rhapontin (natural, rhubarb), Rhapontin]
IC50 [1, 15]: Inactive | LD50 [5]: nontoxic

Nc1nc2ccc(OC(F)(F)F)cc2s1 [Riluzole]
extension in lifespan [8]: 10 days

O=C(/C=C/c1ccc(O)c(O)c1)O[C@H](Cc1ccc(O)c(O)c1)C(=O)O [Rosemarinic acid]
IC50 [1, 11]: 139 µM | LD50 [5]: nontoxic

c1cc2c(cc1[C@H]1OC[C@H]3[C@@H]1CO[C@@H]3c1ccc3c(c1)OCO3)OCO2 [Sesamin, sesamin]
IC50 [1, 16]: 42 µM | LD50 ([5]; Table V): Nontoxic

CN(C)[C@@H]1C(O)=C(C(N)=O)C(=O)[C@@]2(O)C(O)=C3C(=O)c4c(O)cccc4[C@@](C)(O)[C@H]3C[C@@H]12 [Tetracycline]
IC50 ([1]; Mus musculus, Table III, 10 ng/mL TNFα, 24 hr, by interpolation, read-out: IC50): 85 µM | LD50 [5]: nontoxic

C(=C\c1ccccc1)/c1ccccc1 [Trans-stilbene, Trans- stilbene]
IC50 [1, 15]: Inactive | LD50 [5]: nontoxic

N#CC(C#N)=C(N)/C(C#N)=C/c1cc(O)c(O)c(O)c1 [Tyrphostin 51]
IC50 [1, 15]: Inactive | LD50 [5, 12]: nontoxic

N#CC(C#N)=Cc1ccc([N+](=O)[O-])c(O)c1 [Tyrphostin AG126]
IC50 [1, 10]: 18 µM | LD50 [5, 12]: 150 μm

CC(c1cc2ccccc2s1)N(O)C(N)=O (centres unmarked) [Zileuton]
activity against TNFα-stimulated nitrite production [1]: approximately as effective as minocycline | IC50 [1, 14]: 105 µM | LD50 [5]: Nontoxic

Cc1c(C)c2c(c(C)c1O)CC[C@@](C)(CCC[C@H](C)CCC[C@H](C)CCCC(C)C)O2 [alpha tocopherol]
IC50 [1, 15]: Inactive | LD50 [5]: nontoxic

O=C(/C=C/c1ccc(O)c(O)c1)c1ccc(O)cc1O [butein (2′,4′,3,4-tetrahydroxychalcone), 2′,4′,3,4-tetrahydroxychalcone]
IC50 [1, 11]: 5.1 µM | LD50 ([5]; mouse): 77 μm

O=C(/C=C/c1ccc(O)c(O)c1)OCCc1ccccc1 [caffeic acid phenethyl ester (CAPE), caffeic acid phenethyl ester]
activity against TNFα-stimulated nitrite production [1]: approximately as effective as curcumin | IC50 [1, 11]: 12 µM | IC50 [1, 16]: 12 µM | efficacy relative to NDGA as inhibitor of TNFα-stimulated microglial activation ([1]; fold less effective than NDGA): 4 fold | lipoxygenase inhibition relative to NDGA ([9]; times more effective than NDGA, Mirzoeva and Calder, 1996): ~10 times

COC1=C(OC)C(=O)C(C/C=C(\C)CC/C=C(\C)CC/C=C(\C)CC/C=C(\C)CC/C=C(\C)CC/C=C(\C)CC/C=C(\C)CC/C=C(\C)CC/C=C(\C)CCC=C(C)C)=C(C)C1=O [coenzyme O]
IC50 [1, 15]: Inactive | LD50 [5]: nontoxic

COc1cc(/C=C/C(=O)CC(=O)/C=C/c2ccc(OC(C)=O)c(OC)c2)ccc1OC(C)=O [curcumin diacetyl ester]
IC50 ([1]; Table V, read-out: IC50): 14 µM | LD50 ([5]; Table V): Nontoxic

O=C(O[C@@H]1Cc2c(O)cc(O)cc2O[C@@H]1c1ccc(O)c(O)c1)c1cc(O)c(O)c(O)c1 [epicatechin gallate]
IC50 [3]: 10 µM

C[C@@H]1C(=O)O[C@H]2C[C@@]34[C@H]5C[C@@H](C(C)(C)C)[C@]36[C@@H](OC(=O)[C@@H]6O)O[C@@]4(C(=O)O5)[C@]21O [gingkolide A]
IC50 [1, 15]: Inactive | LD50 [5, 12]: nontoxic

C[C@@H]1C(=O)O[C@H]2[C@@H](O)[C@@]34[C@H]5C[C@@H](C(C)(C)C)[C@]36[C@@H](OC(=O)[C@@H]6O)O[C@@]4(C(=O)O5)[C@@]12O [gingkolide B]
IC50 [1, 15]: Inactive | LD50 [5, 12]: nontoxic

O=c1c(O)c(-c2ccc(O)cc2O)oc2cc(O)cc(O)c12 [morin]
IC50 [3]: 56 µM

CC(C)(C)/[N+]([O-])=C/c1ccccc1 [phenyl N tert-butyl-nitrone (PBN), phenyl N tert-butyl-nitrone]
IC50 [1, 10]: 100 µM | LD50 [5, 12]: nontoxic

S=C(S)N1CCCC1 [pyrollidine dithiocarbamate (PDTC), pyrollidine dithiocarbamate]
IC50 [1, 10]: 51 µM | LD50 [5, 12]: 90 μm

Oc1ccc(C#CC/C=C/c2ccc(O)c(O)c2)cc1O [rooperol]
IC50 ([1]; read-out: IC50): 25 µM | cytotoxicity [5]: nontoxic

COc1ccc(C[C@@H](C)[C@@H](C)Cc2ccc(OC)c(OC)c2)cc1OC [tetra-o-methyl-NDGA]
activity against TNFα-stimulated nitrite production [1]: modest bioactivity | IC50 ([1]; Table V, read-out: IC50): 20 µM | LD50 [5]: 125* μM | lipoxygenase inhibition ([9]; literature): does not inhibit lipoxygenase
